Like-named read-outs stand apart in the source and are kept apart here.
Tests used:
[1] = system: P. berghei ookinete development; settings: for % inhibition, Replicate A / % inhibition, Replicate B: primary screen at 1 μM
HepG2 cells = experiment: HepG2 cytotoxicity assay; settings: for IC50: read-out: HepG2 cytotoxicity assay IC50, dose response confirmation; for Unified cytotox: unified HepG2 value across the three screens
Procedure: Briefly, HepG2 cells were seeded onto compound-treated 384 well plates at a density of 2,500 cells per well in Minimal Essential Medium (MEM) plus 10% fetal bovine serum and 1% non-essential amino acids solution (NEAA). Cells were incubated with test compounds or 50 μM doxorubicin (positive) and DSMO (negative) controls at 37°C for 48 h in a humidified 5% CO2 atmosphere. […] Cell viability was then measured in a fluorescent plate reader and percent inhibition calculated with respect to positive and negative controls.

[2] = system: 3D7-strain P. falciparum asexual parasites; experiment: P. falciparum asexual growth inhibition assay (Pf GIA); assay type: cell-based, Plasmodium falciparum; settings: dose response confirmation; read-out: Pf asexual growth inhibition assays IC50
Procedure: The asexual activity of active compounds was tested in dose response with parasite lactate dehydrogenase (LDH) activity used as a readout of parasite viability as described in [Gamo et al. (2010)]. Briefly, 3D7-strain P. falciparum asexual parasites were diluted to 0.25% parasitemia, 2% hematocrit in culture medium composed of RPMI medium with 25 mM HEPES, 2% D-sucrose, 0.3% L-glutamine, 150 μM hypoxanthine plus 5% albumax. 25 μl of parasite inoculum was then dispensed into each well of a 384 well plate containing test compounds and positive (50 μM chloroquine) and negative (DMSO) controls. Plates were incubated for 72 h at 37°C in a 5% CO2, 5%O2, 90% N2 environment before being frozen at −70°C. Plates were then thawed and 70 μl of reaction mix (143 mM sodium L-lactate, 143 mM 3-acetyl pyridine adenine dinucleotide, […] Nitro Blue tetrazolium chloride, […] diaphorase (2.83 U/ml), 0.7% Tween 20, 100 mM Tris–HCl pH 8.0) was added to each well using a Multidrop Combi automated dispenser. Plates were shaken to mix and then absorbance at 650 nm was measured after 10 min incubation at room temperature. Percent inhibition of asexual growth was then calculated with respect to positive and negative controls. Data presented is the mean of three independent biological replicates.

[3] = read-out: Pb ODA IC50, this manuscript
[4] = read-out: Pb Ookinete development assay IC50, dose response confirmation

Compound: O=C(Nc1ccccc1)Nc1ccc(-n2ccc(C(F)(F)F)n2)cc1 [TCMDC-123480]
- Is compound selective in assay? Pb ODA active? ([1]; 1: YES, 0: NO): 1 (1: YES)
- % inhibition, Replicate A [1]: 42.19%
- % inhibition, Replicate B [1]: 52.26%
- IC50 [1, 3]: 1.9 µM
- IC50 [1, 4]: 1.9 µM
- IC50 (HepG2 cells): 100 µM
- Unified cytotox (HepG2 cells): 100.00 µM
- IC50 [2]: 0.419 µM

Compound: O=c1c2c([nH]c3cc(Cl)ccc13)CCCC2 [TCMDC-123504]
- Is compound selective in assay? Pb ODA active? [1]: 1 (key: 1: YES; 0: NO)
- % inhibition, Replicate A [1]: 114.67%
- % inhibition, Replicate B [1]: 120.99%
- IC50 ([1]; read-out: Pb ODA (this manuscript) IC50, P. berghei ookinete development assay, this manuscript): 1.24 µM
- IC50 [1, 4]: 1.24 µM
- Pb ODA (this manuscript) HepG2 cytoxicity (HepG2 cells; HepG2 cytotoxicity listed with the Pb ODA data set (this manuscript)): 100.00 µM
- IC50 (HepG2 cells): 100 µM
- IC50 [2]: 0.824 µM

Compound: O=C(NCC1CCCCC1)c1cc(=O)c2ccccc2o1 [TCMDC-123621]
- Is compound selective in assay? Pb ODA active? ([1]; 1: YES, 0: NO): 1 (1: YES)
- % inhibition, Replicate A [1]: 49.08%
- % inhibition, Replicate B [1]: 59.87%
- IC50 [1, 4]: 1.04 µM
- IC50 (HepG2 cells): 100 µM
- Unified cytotox (HepG2 cells): 100.00 µM
- IC50 [2]: 0.563 µM

Compound: CC(=O)Nc1cccc(Nc2c3ccccc3nc3ccccc23)c1 [TCMDC-123741]
- Is compound selective in assay? Pb ODA active? ([1]; 1: YES, 0: NO): 1 (1: YES)
- % inhibition, Replicate A [1]: 54.87%
- % inhibition, Replicate B [1]: 64.71%
- IC50 [1, 3]: 0.69 µM
- IC50 [1, 4]: 0.686 µM
- IC50 (HepG2 cells): 12.3 µM
- Unified cytotox (HepG2 cells): 12.30 µM
- IC50 [2]: 1.47 µM

Compound: FC(F)(F)c1ccc(Nc2nnnc3ccccc23)cc1 [TCMDC-125603]
- % inhibition, Replicate A [1]: 80.24%
- % inhibition, Replicate B [1]: 96.04%
- IC50 [1, 4]: 1.26 µM
- IC50 [2]: 0.009 µM

Compound: NS(=O)(=O)c1cncc(-c2ccc3nccc(-c4cn[nH]c4)c3n2)c1 [TCMDC-134293]
- % inhibition, Replicate A [1]: 59.71%
- % inhibition, Replicate B [1]: 54.48%
- IC50 [1, 4]: 2.16 µM
- IC50 [2]: 0.283 µM

Compound: Cc1nc(C)c(-c2ccc(Oc3ccc(Cl)cc3Cl)cc2)c(O)c1Br [TCMDC-137533]
- % inhibition, Replicate A [1]: 69.44%
- % inhibition, Replicate B [1]: 92.36%
- IC50 [1, 4]: 0.203 µM
- IC50 [2]: 0.165 µM

Compound: Cl.N=C(N)NN=Cc1c2ccccc2c(Cl)c2c(Cl)cccc12 [TCMDC-137898]
- % inhibition, Replicate A [1]: 66.37%
- % inhibition, Replicate B [1]: 24.36%

Compound: Cc1nc(N)nc(N)c1CCCOc1ccccc1Cl [TCMDC-137929]
- % inhibition, Replicate A [1]: 38.99%
- % inhibition, Replicate B [1]: 55.23%

Compound: CCCc1cc2c3c(N)nc(N)nc3ccc2n1CC [TCMDC-137946]
- % inhibition, Replicate A [1]: 61.03%
- % inhibition, Replicate B [1]: 76.85%

Compound: CCCC(CC)n1ccc2c3c(N)nc(N)nc3ccc21.CS(=O)(=O)O (stereo not shown) [TCMDC-137948]
- % inhibition, Replicate A [1]: 49.24%
- % inhibition, Replicate B [1]: 73.56%

Compound: Cc1cc2c3c(N)nc(N)nc3ccc2n1C [TCMDC-137957]
- % inhibition, Replicate A [1]: 66.89%
- % inhibition, Replicate B [1]: 77.62%

Compound: Cl.Nc1nc(N)c2c(ccc3nn(Cc4cccnc4)cc32)n1 [TCMDC-137968]
- % inhibition, Replicate A [1]: 30.53%
- % inhibition, Replicate B [1]: 62.42%

Compound: COc1ccc(O)c(Cc2cnc3nc(N)nc(N)c3c2C)c1.O=C(O)C(F)(F)F [TCMDC-137998]
- % inhibition, Replicate A [1]: 11.48%
- % inhibition, Replicate B [1]: 55.44%

Compound: COc1ccc2nc3cc(Cl)ccc3c(Nc3ccc(C(=O)O)cc3)c2c1.Cl [TCMDC-138029]
- % inhibition, Replicate A [1]: 92.30%
- % inhibition, Replicate B [1]: 90.70%

Compound: C=CCc1cc(Cc2cnc(N)nc2N)cc(CCC)c1OC [TCMDC-138039]
- % inhibition, Replicate A [1]: 8.79%
- % inhibition, Replicate B [1]: 53.34%

Compound: CCOC(=O)c1cc2c(CCN3C(=O)c4ccccc4C3=O)cn(C)c2cc1-c1ccncc1 [TCMDC-138099]
- % inhibition, Replicate A [1]: 54.94%
- % inhibition, Replicate B [1]: 51.34%

Compound: CCC[C@@H]([C@@H](CC1CCCCC1)C(=O)N[C@H](C(=O)Nc1nccs1)C(C)(C)SC)N(O)C=O [TCMDC-138113]
- % inhibition, Replicate A [1]: 7.94%
- % inhibition, Replicate B [1]: 61.12%

Compound: COc1cc(Cc2cnc(N)nc2N)ccc1OCc1ccc(-c2csnn2)cc1 [TCMDC-138683]
- % inhibition, Replicate A [1]: 55.66%
- % inhibition, Replicate B [1]: 28.96%

Compound: COc1cc(-c2cnc(N)c(-c3nc4ccccc4[nH]3)c2)cc(OC)c1OC.Cl [TCMDC-138793]
- % inhibition, Replicate A [1]: 57.35%
- % inhibition, Replicate B [1]: 34.54%

Compound: COc1ccc2c(=O)c(-c3ccc(OC(F)(F)F)cc3)c(C)[nH]c2c1 [TCMDC-138811]
- % inhibition, Replicate A [1]: 34.78%
- % inhibition, Replicate B [1]: 69.73%

Compound: COc1ccc2nccc(C(=O)NC3CCC(CCN4CCc5cc(C#N)ccc5C4)CC3)c2c1.Cl (stereo not shown) [TCMDC-139240]
- % inhibition, Replicate A [1]: 53.92%
- % inhibition, Replicate B [1]: 18.69%

Compound: Cc1cc(-c2ccc(NC(=O)Nc3ccc4nccc(N5CCN(C)CC5)c4c3)cc2C)cc(C)n1.Cl [TCMDC-139355]
- % inhibition, Replicate A [1]: 53.36%
- % inhibition, Replicate B [1]: 17.60%

Compound: CC(=O)c1c[nH]c2ccc(/C=C/C(=O)NC3CCC(CCN4CCc5ccc(C#N)cc5CC4)CC3)cc12.Cl (stereo not shown) [TCMDC-139781]
- % inhibition, Replicate A [1]: 63.32%
- % inhibition, Replicate B [1]: 35.61%

Compound: O=c1cc(NCCCN(Cc2cc3c(Cl)cc(Cl)cc3[nH]2)Cc2cc3c(Cl)cc(Cl)cc3[nH]2)[nH]c2ccccc12 [TCMDC-139849]
- % inhibition, Replicate A [1]: 64.98%
- % inhibition, Replicate B [1]: 20.87%

Compound: O=C(NCCCN1CCN(c2cccc(Cl)c2)CC1)c1ccc(-c2nc3cc(Cl)c(Cl)cc3[nH]2)cc1 [TCMDC-140077]
- % inhibition, Replicate A [1]: 61.66%
- % inhibition, Replicate B [1]: 14.32%

Compound: CN(C)CCCOc1ccccc1CN1CC[C@H](NC(=O)c2ccc(Cl)c(Cl)c2)C1.O=C(O)C(F)(F)F [TCMDC-140310]
- % inhibition, Replicate A [1]: -10.45%
- % inhibition, Replicate B [1]: 74.47%

Compound: COc1cc(NCCCNC(=O)c2cc3c(Cl)cc(Cl)cc3[nH]2)nc2ccccc12 [TCMDC-140360]
- % inhibition, Replicate A [1]: 57.79%
- % inhibition, Replicate B [1]: 39.97%

Compound: Cc1cc(CNCCCCCCNCc2ccc(Cl)cc2)ccc1O [TCMDC-140414]
- % inhibition, Replicate A [1]: 6.85%
- % inhibition, Replicate B [1]: 50.55%

Compound: COc1ccc2nccc(NC(=O)N3CCC(NCc4cc5ccccc5[nH]4)CC3)c2n1.O=C(O)C(=O)O [TCMDC-140671]
- % inhibition, Replicate A [1]: 55.02%
- % inhibition, Replicate B [1]: 18.69%

Compound: COc1ccc2nccc([C@@H](O)CN3CCC(NCc4cc5cccc6c5n(c4=O)CCC6)CC3)c2c1.O=C(O)C(=O)O [TCMDC-140735]
- Is compound selective in assay? Pb ODA active? ([1]; 1: YES, 0: NO): 0 (0: NO)
- % inhibition, Replicate A [1]: 13.85%
- % inhibition, Replicate B [1]: 52.08%
- IC50 [1, 3]: 3.43 µM
- IC50 [1, 4]: 3.43 µM
- IC50 (HepG2 cells): 16.2 µM
- Unified cytotox (HepG2 cells): 16.22 µM

Compound: CC(C)(CN)c1nc(-c2ccc(Cl)c(O)c2)c(-c2ccnc(N)n2)[nH]1 [TCMDC-141019]
- % inhibition, Replicate A [1]: 10.20%
- % inhibition, Replicate B [1]: 56.84%
- IC50 [1, 4]: 1.72 µM
- IC50 [2]: 0.863 µM

Compound: Cc1c(CNCCCNc2cc(=O)c3ccccc3[nH]2)sc(-c2ccco2)c1Br.Cl [TCMDC-141065]
- % inhibition, Replicate A [1]: 4.54%
- % inhibition, Replicate B [1]: 52.38%

Compound: O=C(N[C@H]1CCN(CCc2ccc(O[C@H]3CCNC3)cc2)C1)c1ccc(Cl)c(Cl)c1.O=C(O)C(F)(F)F [TCMDC-141066]
- % inhibition, Replicate A [1]: 57.79%
- % inhibition, Replicate B [1]: 22.51%

Compound: COc1ccc2nccc([C@@H](O)CN3CCC(NC(=O)Cc4cccc5c(Br)cccc45)CC3)c2c1 [TCMDC-141111]
- % inhibition, Replicate A [1]: 36.89%
- % inhibition, Replicate B [1]: 51.52%

Compound: CCCCCCNC(=O)C1Cc2c([nH]c3ccc(Br)cc23)C2(CCN(CCc3ccccc3)CC2)N1 (stereo not shown) [TCMDC-141182]
- % inhibition, Replicate A [1]: 15.53%
- % inhibition, Replicate B [1]: 59.10%

Compound: CCN(CC)CCN(Cc1ccc(-c2ccc(C(F)(F)F)cc2)cc1)C(=O)Cn1cc(CCCCc2cccc(F)c2F)c(=O)c2ccccc21.O=C(O)C(O)C(O)C(=O)O [TCMDC-141340]
- % inhibition, Replicate A [1]: 60.00%
- % inhibition, Replicate B [1]: 20.87%

Compound: CC(=O)Nc1cccc(CN(Cc2ccc(-c3ccc(CNCc4cccnc4)cn3)cc2)C(=O)Cc2cccnc2)c1.O=C(O)C(F)(F)F [TCMDC-141604]
- % inhibition, Replicate A [1]: 63.32%
- % inhibition, Replicate B [1]: 20.87%

Compound: C=Cc1cc(OC)c2c(c1)c(=O)oc1c2cc(OC)c2c(O)ccc([C@H]3O[C@H]([C@H](C)O)[C@H](O)[C@H]3O)c21 [TCMDC-141972]
- % inhibition, Replicate A [1]: 89.48%
- % inhibition, Replicate B [1]: 109.41%

Compound: O=[N+]([O-])c1ccccc1C=NN=c1c2c([nH]c3ccccc13)CCCC2 [TCMDC-142202]
- % inhibition, Replicate A [1]: 51.15%
- % inhibition, Replicate B [1]: 30.70%

Compound: CCN(CC)CCCC(C)Nc1c(-c2ccc(C)cc2)cnc2ccccc12 (stereo not shown) [TCMDC-142264]
- % inhibition, Replicate A [1]: 53.92%
- % inhibition, Replicate B [1]: 8.32%

Source: paper PMC6753678, “Fueling Open Innovation for Malaria Transmission-Blocking Drugs: Hundreds of Molecules Targeting Early Parasite Mosquito Stages” (Frontiers in Microbiology, 2019)
